Where two headings read alike, the source gives them in different places. d = 2'-deoxy (DNA); r = 2'-OH (RNA)
Assays:
MUC1 [1] = details: for MUC1 protein (immunoblot): 0.8 μM
Method: Cell Culture: Human MCF-7 breast carcinoma and HeLa cervical carcinoma cella (obtained form the ATCC, Manassas, Va.) were grown in DMEM (high glucose; Mediatech, Cellgrow) supplemented with 10% heat-inactivated fetal calf serum (FCS) and 2 mM L-glutamate.
Immunoblot analysis: Cells were lysed in ice-cold lysis buffer (20 mM Tris-HCl, pH 8.0, 150 mM NaCl, 1% Triton-X-100, 1 mM phenylsulfonyl fluoride, 1 mM DTT, 10 μgm/ml aprotinin) for 30 min. Lysates were cleared by centrifugation for 20 min. at 4° C. as described (Yin et al, 2001). Proteins were separated by SDS-PAGE, transferred to nitrocellulose and probed with anti-DF3/MUC1 (Kufe, U.S. Pat. No. 5,506,34) or anti-β-actin (Sigma). The antigen-antibody complexes were visualized by enhanced chemiluminescence (ECL; Amersham Life Sciences).
CDDO downregulates MUC1 expression: MUC1-positive cells were treated with CDDO at concentrations of 1, 3 and 5 μM.

MUC1 [2] = experiment: MUC1 induction by oxidative and genotoxic stress (immunoblot); details: MCF-7 cells
Method: To determine whether MUC1 is induced in response to oxidative stress, MCF-7 cells were treated with hydrogen peroxide. Cell lysates were analyzed by immunoblotting with anti-DF3/MUC1 antibody. Lysates were prepared by suspending MCF-7 cells in lysis buffer (50 mM Tris, pH 7.6, 150 mM NaCl, 1 mM PMSF, 3 mM NaF, 1 mM sodium vandate, 1 mM DTT with protease inhibitors and either 1% NP-40 or 1% Brij-96) for 30 min. on ice. Lysates were cleared by centifugation and equal amounts of proteins were resolved by SDS-PAGE. Proteins were then transferred to nitrocellulose filters, blocked by incubation in 5% non-fat dry milk in PBS with 0.05% Tween-20 and probed with anti-MUC1 antibody (Pandey et al., 1995). Anti-actin was used as a control.
Similar studies were performed with genotoxic agents.

3Y1 fibroblasts = experiment: Apoptosis assays (TUNEL, sub-G1 DNA) in 3Y1 cells; format: cell-based, Rat; details: 3Y1/MUC1 compared to 3Y1/vector cells; 50 mM gemcitabine
Method: Cell culture. Rat 3Y1 fibroblasts stably expressing the empty vector or full-length MUC1 (19) were cultured in Dulbecco's modified Eagle's medium containing 10% heat-inactivated fetal calf serum, 100 units/ml penicillin, […] streptomycin and 2 mM L-glutamine. Cells were treated with 25 mM LY294002 (Sigma), 10 mM 1-b-D-arabinofuranosycyltosine (ara-C; Sigma) or 50 mM gemcitabine (Eli Lilly).
Apoptosis assays. For TUNEL staining, cells were fixed in 4% paraformaldehyde, permeabilized in 0.1% Triton X-100/0.1% sodium citrate for 2 min and processed according to the manufacturer's instructions (In Situ Cell Death detection kit, fluorescein; Roche). For analysis of sub-G1 DNA, cells were washed with PBS, fixed in 70% ethanol, incubated with 2.5 mg/ml propidium iodide and 50 mg/ml RNase, and then monitored by FACScan.
MUC1 attenuates ara-C- and gemcitabine-induced apoptosis. To determine if MUC1 affects induction of apoptosis by ara-C, the 3Y1/vector and 3Y1/MUC1 cells were analyzed for TUNEL staining and sub-G1 DNA. […] Moreover, ara-C treatment of 3Y1/vector cells was associated with over 40% apoptosis as determined by sub-G1 DNA analysis.
To extend these observations to other anti-cancer agents, we treated the 3Y1/vector and 3Y1/MUC1 cells with gemcitabine. As determined by analysis of sub-G1 DNA and as found with ara-C, gemcitabine-induced apoptosis was attenuated in 3Y1/MUC1, as compared to 3Y1/vector, cells.

HCT116 cells = experiment: Apoptosis (sub-G1 DNA, TUNEL) in HCT116 transfectants; format: cell-based, human; details: HCT116/vector cells
Method: Methods. Apoptotic cells were quantified by analysis of sub-G1 DNA and TUNEL staining. To assess sub-G1 DNA content, cells were harvested, washed with PBS, fixed with 80% ethanol, and incubated in PBS containing 20 ng/ml RNase (Roche) for 60 min at 37° C. Cells were then stained with […] propidium iodide (Sigma) for 30 min at room temperature in the dark. DNA content was analyzed by flow cytometry (EPICS XL-MCL, Coulter Corp.). Apoptotic cells with DNA fragmentation were detected by staining with the In Situ cell death detection kit (TUNEL; Roche Applied Science) and visualized by confocal microscopy (ZEISS LSM510). After staining, cells were analyzed by flow cytometry. Other experimental procedures and methods were as described in Example 15.
Results. To determine if MUC1 affects the induction of apoptosis by CDDP, cells were analyzed for sub-G1 DNA content. […] Stimulation of cell surface death receptors with TNF-α or the TNF-related apoptosis inducing factor TRAIL is associated with activation of the extrinsic apoptotic pathway. To determine if MUC1 affects death receptor-induced apoptosis, HCT116 cells were treated with TNF-α.

MUC1 [3] = experiment: Western blot of MUC1 after siRNA transfection; format: cell-based, human; details: MCF-7 cells; siRNA 0.2 micromolar; FIG. 5, FIG. 6
Source text: Cell Culture: Human MCF-7 breast cancer cells were maintained in DMEM supplemented with 10% heat inactivated fetal bovine serum (FBS) and 1% penicillin-streptomycin mixture. Human A549 non-small cell lung cancer cells were maintained in RPMI1640 medium supplemented with 10% FBS and 1% penicillin-streptomycin mixture.
siRNAs: Five different double stranded anti-MUC1 siRNAs were designed: one against the target sequence SEQ ID NO: 63, i.e., […], with sense and antisense strands as shown in SEQ ID NO: 64 and SEQ ID NO: 65 respectively (hereinafter siRNA #1); one against the target sequence SEQ ID NO: 42, i.e., […], with sense and antisense strands as shown in SEQ ID NO: 43 and SEQ ID NO: 44 respectively (hereinafter siRNA #2); one against the target sequence SEQ ID NO: 21, i.e., […], with sense and antisense strands as shown in SEQ ID NO: 22 and SEQ ID NO: 23 respectively (hereinafter siRNA #3); one against the target sequence SEQ ID NO: 66, i.e., […], with sense and antisense strands as shown by SEQ ID NO: 67 and SEQ ID NO: 68 respectively (hereinafter siRNA #4); and one against target sequence SEQ ID NO: 69, i.e., […], with sense and antisense strands as shown by SEQ ID NO: 70 and SEQ ID NO: 71 respectively (hereinafter siRNA #5). A control siRNA was designed against the scrambled target SEQ ID NO: 72 with sense and antisense strands as shown by SEQ ID NO: 73 and SEQ ID NO: 74 respectively. Each RNA sense oligonucleotide (50 μM) was combined with equal volume of antisense oligonucleotide (50 μM) in an annealing buffer (20 mM KCl, 6 mM HEPES-KOH, pH 7.5, 0.2 mM MgCl2). The solution was incubated for 1 min at 90° C. to denature secondary structure, and placed at 37° C. for 1 hour to anneal the complementary strands. The subsequent double stranded RNAs were used as the anti-MUC1 siRNA.
Transfection: Cells (1-3×10^5 cells/well) were plated in 6-well plates in growth medium without antibiotics, and incubated overnight. After washing cells once with Opti-MEM I (Invitrogen), 800 μL of fresh Opti-MEM I and 200 μL of the Reagent (Invitrogen) were added to the cultured cells. Four hours later, 300 μL of FBS was added to the cultured cells.
Western Blot Analysis: Cell were passed a day before transfection. MUC1 siRNA (0.2 micromolar) was added with oligofectamine to cells in 0% FBS. Four hours later serum was added to a final concentration of 10%. After various time intervals (48 h, 72 h and 96 h), cells were washed and total cell lysates were prepared. Proteins were separated from cell lysates by SDS-PAGE, transferred to nitrocellulose and analyzed by immunoblotting with anti-DF3 antibodies.

Q: For 2-propyl-imadazole CDDO [CDDO-Pr-Im], which “MUC1 protein (immunoblot)” value (MUC1 [1]) is on record?
A: decreased levels

Q: With CC1(C)CC[C@]2(C(=O)n3ccnc3)CC[C@]3(C)[C@H](C(=O)C=C4[C@@]5(C)C=C(C#N)C(=O)C(C)(C)[C@@H]5CC[C@]43C)[C@@H]2C1 [CDDO-Im, imadzole CDDO] as the compound, how does the “MUC1 protein (immunoblot)” value (MUC1 [1]) read?
A: decreased levels

Q: COC(=O)[C@]12CCC(C)(C)C[C@H]1[C@H]1C(=O)C=C3[C@@]4(C)C=C(C#N)C(=O)C(C)(C)[C@@H]4CC[C@@]3(C)[C@]1(C)CC2 [CDDO-Me, CDDO methyl ester] was tested. Which “MUC1 expression (immunoblot)” value (MUC1 [1]; 1 μM, 12 hr and 24 hr) did it give?
A: detectable at 12 hr and nearly complete at 24 hr

Q: N[C@@H](CCC(=O)N[C@@H](CS)C(=O)NCC(=O)O)C(=O)O [GSH, glutathione] was tested. Which “CDDO-, CDDO-Me-, CDDO-Im- and CDDO-Pr-Im-induced decreases in MUC1” value (MUC1 [1]; cells treated with antioxidant) did it give?
A: blocked the effects

Q: With COc1cccc2c1C(=O)c1c(O)c3c(c(O)c1C2=O)C[C@@](O)(C(C)=O)C[C@@H]3O[C@H]1C[C@H](N)[C@H](O)[C@H](C)O1 [daunorubicin] as the compound, how does the “MUC1 expression (immunoblot)” value (MUC1 [2]) read?
A: rapid and transient induction

Q: Nc1ccn([C@@H]2O[C@H](CO)[C@@H](O)C2(F)F)c(=O)n1 [gemcitabine] was tested. Which “gemcitabine-induced apoptosis (sub-G1 DNA)” value (3Y1 fibroblasts) did it give?
A: attenuated

Q: How did the apoptosis (HCT116 cells; TNF-α alone) turn out when TNF-α was run?
A: failed to induce apoptosis

Q: And the apoptosis (HCT116 cells; in the presence of cycloheximide (CHX), FIG. 18)?
A: induction of HCT116/vector cell apoptosis

Q: For “siRNA #3: double stranded anti-MUC1 siRNA, target SEQ ID NO: 21, sense SEQ ID NO: 22, antisense SEQ ID NO: 23 (sense AAGGAGACUUCGGCUGCCCTT; antisense GGGCAGCCGAAGUCUCCUUTT; sugars from the 5' end r19 d2, backbone not given here)”, which “MUC1 expression at the protein level (immunoblot)” value (MUC1 [3]) is on record?
A: downregulation of MUC1 expression

Q: With “siRNA #4: double stranded anti-MUC1 siRNA, target SEQ ID NO: 66, sense SEQ ID NO: 67, antisense SEQ ID NO: 68 (sense GUUCAGUGCCCAGCUCUACTT; antisense GUAGAGCUGGGCACUGAACTT; sugars from the 5' end r19 d2, backbone not given here)” as the compound, how does the “MUC1 expression at the protein level (immunoblot)” value (MUC1 [3]) read?
A: downregulation of MUC1 expression

Q: With “siRNA #5: double stranded anti-MUC1 siRNA, target SEQ ID NO: 69, sense SEQ ID NO: 70, antisense SEQ ID NO: 71 (sense GGUUUCUGCAGGUAAUGGUTT; antisense ACCAUUACCUGCAGAAACCTT; sugars from the 5' end r19 d2, backbone not given here)” as the compound, how does the “MUC1 expression at the protein level (immunoblot)” value (MUC1 [3]) read?
A: downregulation of MUC1 expression

From US20050042209A1, “MUC1 extracellular domain and cancer treatment compositions and methods derived therefrom” (priority 2000, published 2005)
